From patent US8906909B2 (Curis, Inc., priority 2009, dated 2014)

What was measured:
[1] = tested on: HDACs (HeLa cell nuclear extracts); experiment: HDAC enzymatic activity, Biomol Color de Lys system; type: biochemical
Method in brief: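 IC50 from sigmoidal dose-response fits of fluorescence (Ex 350–380, Em 440–460 nm). Compounds in DMSO dilution series incubated 1 h at 25 °C with HeLa nuclear extract HDACs and colorimetric substrate, pH 8.0 Tris/Cl buffer with NaCl, KCl, MgCl2, before developer termination.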

IC50 [1] [nM] | melting point [°C] | SMILES
< 100 | 215 to 217 | CNC(=O)c1cccc(-c2nc(N3CCOCC3)c3sc(CN(C)c4ncc(C(=O)NO)cn4)cc3n2)c1 [Compound 144, N-hydroxy-2-(methyl((2-(3-(methylcarbamoyl)phenyl)-4-morpholinothieno[3,2-d]pyrimidin-6-yl)methyl)amino)pyrimidine-5-carboxamide]
100 to 1000 | 143 to 145 | CS(=O)(=O)N1CCN(Cc2cc3nc(-c4ccc(OCCCCCCC(=O)NO)cc4)nc(N4CCOCC4)c3s2)CC1 [Compound 321, N-Hydroxy-7-(4-(6-((4-(methylsulfonyl)piperazin-1-yl)methyl)-4-morpholinothieno[3,2-d]pyrimidin-2-yl)phenoxy)heptanamide]
< 100 | 149 to 152 | O=C(CCCNCc1cc2nc(-c3cccc4[nH]ncc34)nc(N3CCOCC3)c2s1)NO [Compound 41, 4-((2-(1H-indazol-4-yl)-4-morpholinothieno[3,2-d]pyrimidin-6-yl)methylamino)-N-hydroxybutanamide]
< 100 | 170 to 175 | CNCCOc1ccc(-c2nc(N3CCOCC3)c3sc(CN(C)c4ncc(C(=O)NO)cn4)cc3n2)cn1 [Compound 258, N-Hydroxy-2-(methyl((2-(6-(2-(methylamino)ethoxy)pyridin-3-yl)-4-morpholinothieno[3,2-d]pyrimidin-6-yl)methyl)amino)pyrimidine-5-carboxamide]
< 100 | 190 to 193 | CN(Cc1cc2nc(-c3cc(F)c(N)c(F)c3)nc(N3CCOCC3)c2s1)c1ncc(C(=O)NO)cn1 [Compound 282, 2-(((2-(4-Amino-3,5-difluorophenyl)-4-morpholinothieno[3,2-d]pyrimidin-6-yl)methyl)(methyl)amino)-N-hydroxypyrimidine-5-carboxamide]
< 100 | 159 to 160 | CN(Cc1cc2nc(-c3cncnc3)nc(N3CCOCC3)c2s1)c1ncc(C(=O)NO)cn1 [Compound 119, N-hydroxy-2-(methyl((4-morpholino-2-(pyrimidin-5-yl)thieno[3,2-d]pyrimidin-6-yl)methyl)amino)pyrimidine-5-carboxamide]
< 100 | 217 to 223 | Nc1ccc(-c2nc(N3CCOCC3)c3sc(CNc4ncc(C(=O)NO)cn4)cc3n2)cc1 [Compound 211, 2-((2-(4-aminophenyl)-4-morpholinothieno[3,2-d]pyrimidin-6-yl)methylamino)-N-hydroxypyrimidine-5-carboxamide]
< 100 | 202 to 206 | CN(Cc1cc2nc(-c3ccc(N)c([N+](=O)[O-])c3)nc(N3CCOCC3)c2s1)c1ncc(C(=O)NO)cn1 [Compound 278, 2-(((2-(4-Amino-3-nitrophenyl)-4-morpholinothieno[3,2-d]pyrimidin-6-yl)methyl)(methyl)amino)-N-hydroxypyrimidine-5-carboxamide]
< 100 | 124 to 125 | CS(=O)(=O)N1CCN(Cc2cc3nc(-c4cccc5nn(CCCCCC(=O)NO)cc45)nc(N4CCOCC4)c3s2)CC1 [Compound 8, N-hydroxy-6-(4-(6-((4-(methylsulfonyl)piperazin-1-yl)methyl)-4-morpholinothieno[3,2-d]pyrimidin-2-yl)-2H-indazol-2-yl)hexanamide]
< 100 | 259 to 265 | COc1ccc(-c2nc(N3CCOCC3)c3sc(S(=O)(=O)Nc4ncc(C(=O)NO)cn4)cc3n2)cn1 [Compound 252, 2-[2-(6-Methoxy-pyridin-3-yl)-4-morpholin-4-yl-thieno[3,2-d]pyrimidine-6-sulfonylamino]-pyrimidine-5-carboxylic acid hydroxyamide]
< 100 | 168 to 170 | CN(Cc1cc2nc(-c3ccc(F)cc3)nc(N3CCOCC3)c2s1)c1ncc(C(=O)NO)cn1 [Compound 200, 2-(((2-(4-fluorophenyl)-4-morpholinothieno[3,2-d]pyrimidin-6-yl)methyl)(methyl)amino)-N-hydroxypyrimidine-5-carboxamide]
< 100 | 156 to 158 | CC(=O)c1cc(-c2nc(N3CCOCC3)c3sc(CN(C)c4ncc(C(=O)NO)cn4)cc3n2)ccc1N [Compound 281, 2-{[2-(3-Acetyl-4-amino-phenyl)-4-morpholin-4-yl-thieno[3,2-d]pyrimidin-6-ylmethyl]-methyl-amino}-pyrimidine-5-carboxylic acid hydroxyamide]
< 100 | 123 to 126 | CS(=O)(=O)N1CCN(Cc2cc3nc(-c4cccc5nn(CCCCCCC(=O)NO)cc45)nc(N4CCOCC4)c3s2)CC1 [Compound 9, N-hydroxy-7-(4-(6-((4-(methylsulfonyl)piperazin-1-yl)methyl)-4-morpholinothieno[3,2-d]pyrimidin-2-yl)-2H-indazol-2-yl)heptanamide]
< 100 | 220 to 225 | Nc1ncc(-c2nc(N3CCOCC3)c3sc(NCCCCCC(=O)NO)cc3n2)cn1 [Compound 232, 6-[2-(2-Amino-pyrimidin-5-yl)-4-morpholin-4-yl-thieno[3,2-d]pyrimidin-6-ylamino]-hexanoic acid hydroxyamide]
< 100 | 218 to 220 | CNc1ccc(-c2nc(N3CCOCC3)c3sc(CN(C)c4ncc(C(=O)NO)cn4)cc3n2)cc1 [Compound 151, N-hydroxy-2-(methyl((2-(4-(methylamino)phenyl)-4-morpholinothieno[3,2-d]pyrimidin-6-yl)methyl)amino)pyrimidine-5-carboxamide]
< 100 | 200 to 202 | CN(Cc1cc2nc(-c3ccc(C(N)=O)cc3)nc(N3CCOCC3)c2s1)c1ncc(C(=O)NO)cn1 [Compound 143, 2-(((2-(4-carbamoylphenyl)-4-morpholinothieno[3,2-d]pyrimidin-6-yl)methyl)(methyl)amino)-N-hydroxypyrimidine-5-carboxamide]
< 100 | 179 to 182 | CN(Cc1cc2nc(-c3cccc(N)c3)nc(N3CCOCC3)c2s1)c1ncc(C(=O)NO)cn1 [Compound 134, 2-(((2-(3-aminophenyl)-4-morpholinothieno[3,2-d]pyrimidin-6-yl)methyl)(methyl)amino)-N-hydroxypyrimidine-5-carboxamide]
< 100 | 208 to 210 | CN(C)c1ccc(-c2nc(N3CCOCC3)c3sc(CN(C)c4ncc(C(=O)NO)cn4)cc3n2)cc1 [Compound 152, 2-(((2-(4-(dimethylamino)phenyl)-4-morpholinothieno[3,2-d]pyrimidin-6-yl)methyl)(methyl)amino)-N-hydroxypyrimidine-5-carboxamide]
100 to 1000 | 140 to 144 | CS(=O)(=O)N1CCN(Cc2cc3nc(-c4ccc(OCCCCC(=O)NO)cc4)nc(N4CCOCC4)c3s2)CC1 [Compound 319, N-Hydroxy-5-(4-(6-((4-(methylsulfonyl)piperazin-1-yl)methyl)-4-morpholinothieno[3,2-d]pyrimidin-2-yl)phenoxy)pentanamide]

SMILES | IC50 [1] [nM] | melting point [°C]
CN(Cc1cc2nc(-c3cnn(C)c3)nc(N3CCOCC3)c2s1)c1ncc(C(=O)NO)cn1 [Compound 246, N-Hydroxy-2-(methyl((2-(1-methyl-1H-pyrazol-4-yl)-4-morpholinothieno[3,2-d]pyrimidin-6-yl)methyl)amino)pyrimidine-5-carboxamide] | < 100 | 164 to 169
